Data: patent US8969055B2 (priority 2009, dated 2015)
Read-outs that look alike come from different tables or passages of the source.

Key:
[1] = Example 3 fermentation, oleyl alcohol
Method: Filter sterilized solutions of ampicillin, thiamine hydrochloride, and glucose were added to the fermentor medium, post sterilization, to a final concentration of 100 mg/L, 5 mg/L and 20 g/L respectively. Fermentations were run using a 1 L autoclavable bioreactor, Bio Console ADI 1025 (Applikon, Inc, Holland) with a working volume of 900 mL. The temperature was maintained at 30° C. during the entire fermentation and the pH was maintained at 6.8 using ammonium hydroxide. Following inoculation of the sterile fermentation medium with seed culture (2-10 vol %), the fermentor was operated aerobically at a 30% dissolved oxygen (DO) set point with 0.3 vvm of air flow by automatic control of the agitation rate (rpm). […] Four hours post induction, fermentation conditions were switched to microaerobic conditions by decreasing the airflow to 0.13 slpm and setting the DO set point to 3-5%. […] Glucose was added as a bolus (50 wt % stock solution) to the fermentor on a need basis to keep levels of glucose between 20 g/L and 2 g/L.
Glucose levels were monitored using HPLC and YSI as described above herein.

[2] = oleyl alcohol/BFM, 30° C.
From the text: The aqueous and organic phases in each flask were separated by decantation.
Each data point corresponding to a specified level of electrolyte as shown in Table 3 and Table 4 was repeated twice and values for Kp reported as the average of the two flasks.

4KO E. coli strain = conditions: for E. coli Growth Rate (μ): 4KO E. coli, BFM + betaine, 30° C.
Method: From a frozen vial, 25 mL of seed culture was grown in Difco LB broth, Miller medium, purchased from BD Laboratories (Becton & Dickinson and Company, Sparks, Md., 21152, USA) at 30° C., 200 RPM. […] Samples were withdrawn at defined time points to monitor biomass growth as measured by OD600. Growth rates were calculated from the biomass time profiles by fitting exponential growth rate equations.

[3] = Activity of enzyme expressed from sadB gene in cell-free extracts of Mach1/pTrc99a::sadB; format: biochemical, Achromobacter xylosoxidans; conditions: isobutyraldehyde as the standard
Method: The sadB coding region was then cloned into the vector pTrc99a (Amann et al., Gene 69: 301-315, 1988). The pCR4Blunt::sadB was digested with EcoRI, releasing the sadB fragment, which was ligated with EcoRI-digested pTrc99a to generate pTrc99a::sadB. This plasmid was transformed into E. coli Mach 1 cells and the resulting transformant was named Mach1/pTrc99a::sadB. The activity of the enzyme expressed from the sadB gene in these cells was determined to be 3.5 mmol/min/mg protein in cell-free extracts when analyzed using isobutyraldehyde as the standard.

With Isobutanol the “Kp [Conc in OA phase]/[Conc in Aq Phase]” value ([1]; Na2SO4 added 0 moles/L, total salts 0.05 moles/L) was 3.1, the “Kp [Conc in OA phase]/[Conc in Aq Phase]” value ([1]; Na2SO4 added 0.28 moles/L, total salts 0.33 moles/L) was 4.5 and the “Kp [Conc in OA phase]/[Conc in Aq Phase]” value ([1]; Na2SO4 added 0.42 moles/L, total salts 0.47 moles/L) was 5.4. For the same molecule, the Kp ([2]; Na2SO4 added 0.00 moles/L, total salts 0.14 moles/L) was 4.80, the Kp ([2]; Na2SO4 added 0.03 moles/L, total salts 0.17 moles/L) was 5.03 and the Kp ([2]; Na2SO4 added 0.07 moles/L, total salts 0.21 moles/L) was 5.25. It also gave a Kp ([2]; Na2SO4 added 0.15 moles/L, total salts 0.29 moles/L) of 5.78, a Kp ([2]; Na2SO4 added 0.22 moles/L, total salts 0.36 moles/L) of 6.37 and a Kp ([2]; Na2SO4 added 0.29 moles/L, total salts 0.43 moles/L) of 7.12. It also gave a Kp ([2]; Na2SO4 added 0.44 moles/L, total salts 0.58 moles/L) of 8.34, a Kp ([2]; Na2SO4 added 0.67 moles/L, total salts 0.81 moles/L) of 10.50 and a Kp ([2]; Na2SO4 added 1.00 moles/L, total salts 1.14 moles/L) of 15.95. It also gave a Kp ([2]; Na2SO4 added 1.33 moles/L, total salts 1.47 moles/L) of 24.68, a Kp ([2]; Na2SO4 added 2.00 moles/L, total salts 2.14 moles/L) of 60.99 and a Kp ([2]; NaCl added 0.00 moles/L, total salt 0.14 moles/L) of 4.87. For the same molecule, the Kp ([2]; NaCl added 0.01 moles/L, total salt 0.15 moles/L) was 4.87, the Kp ([2]; NaCl added 0.04 moles/L, total salt 0.18 moles/L) was 4.89 and the Kp ([2]; NaCl added 0.07 moles/L, total salt 0.21 moles/L) was 4.95. It also gave a Kp ([2]; NaCl added 0.11 moles/L, total salt 0.25 moles/L) of 5.00, a Kp ([2]; NaCl added 0.14 moles/L, total salt 0.28 moles/L) of 5.00 and a Kp ([2]; NaCl added 0.21 moles/L, total salt 0.35 moles/L) of 5.22. It also gave a Kp ([2]; NaCl added 0.33 moles/L, total salt 0.47 moles/L) of 5.04, a Kp ([2]; NaCl added 0.67 moles/L, total salt 0.81 moles/L) of 5.91 and a Kp ([2]; NaCl added 1.00 moles/L, total salt 1.14 moles/L) of 6.88. The Kp ([2]; NaCl added 1.33 moles/L, total salt 1.47 moles/L) was 8.06.

In the case of `O=S(=O)([O-])[O-].[Na+].[Na+]` [Na2SO4, Sodium sulfate], the “drop in growth rate” value (4KO E. coli strain; 1M salt concentration) is reported as “greater than 80%”, the “E. coli Growth Rate (μ)” value (4KO E. coli strain; Na2SO4 added 0.03 mole/L, total salts 0.17 moles/L) is reported as 0.79 h⁻¹ and the “E. coli Growth Rate (μ)” value (4KO E. coli strain; Na2SO4 added 0.07 mole/L, total salts 0.21 moles/L) is reported as 0.79 h⁻¹. For the same molecule, the “E. coli Growth Rate (μ)” value (4KO E. coli strain; Na2SO4 added 0.15 mole/L, total salts 0.29 moles/L) was 0.79 h⁻¹, the “E. coli Growth Rate (μ)” value (4KO E. coli strain; Na2SO4 added 0.22 mole/L, total salts 0.36 moles/L) was 0.74 h⁻¹ and the “E. coli Growth Rate (μ)” value (4KO E. coli strain; Na2SO4 added 0.29 mole/L, total salts 0.43 moles/L) was 0.69 h⁻¹. The “E. coli Growth Rate (μ)” value (4KO E. coli strain; Na2SO4 added 0.44 mole/L, total salts 0.58 moles/L) was 0.60 h⁻¹, the “E. coli Growth Rate (μ)” value (4KO E. coli strain; Na2SO4 added 0.67 mole/L, total salts 0.81 moles/L) was 0.55 h⁻¹ and the “E. coli Growth Rate (μ)” value (4KO E. coli strain; Na2SO4 added 1.00 mole/L, total salts 1.14 moles/L) was 0.14 h⁻¹. For the same molecule, the “E. coli Growth Rate (μ)” value (4KO E. coli strain; Na2SO4 added 1.33 mole/L, total salts 1.47 moles/L) was “Negligible growth”, the “E. coli Growth Rate (μ)” value (4KO E. coli strain; Na2SO4 added 2.00 mole/L, total salts 2.14 moles/L) was “Negligible Growth” and the “loss of growth rate compared to no electrolyte control” value (4KO E. coli strain; about 0.67 M Na2SO4 (total salt level of 0.81 M)) was 30%.

B1: enzyme expressed from the sadB gene: butanol dehydrogenase from Achromobacter xylosoxidans (protein SEQ ID NO: 10) (protein)
chain: MKALVYHGDHKISLEDKPKPTLQKPTDVVVRVLKTTICGTDLGIYKGKNPEVADGRILGHEGVGVIEEVGESVTQFKKGDKVLISCVTSCGSCDYCKKQLYSHCRDGGWILGYMIDGVQAEYVRIPHADNSLYKIPQTIDDEIAVLLSDILPTGHEIGVQYGNVQPGDAVAIVGAGPVGMSVLLTAQFYSPSTIIVIDMDENRLQLAKELGATHTINSGTENVVEAVHRIAAEGVDVAIEAVGIPATWDICQEIVKPGAHIANVGVHGVKVDFEIQKLWIKNLTITTGLVNTNTTPMLMKVASTDKLPLKKMITHRFELAEIEHAYQVFLNGAKEKAMKIILSNAGAA
modifications: Achromobacter xyloxidans
In the case of B1, the “activity of the enzyme” value [3] is reported as 3.5 mmol/min/mg protein.
